Experimental data published in patent publication US20250325534A1, “MICROBIOCIDAL TETRAHYDROISOQUINOLINE DERIVATIVES” (SYNGENTA CROP PROTECTION AG, priority 2021, published 2025).

Tests used:
Alternaria solani = Alternaria solani / tomato / leaf disc (early blight); assay type: in vivo; details: foliar, inoculated 2 days after application, vs untreated control
Glomerella lagenarium = Glomerella lagenarium (Colletotrichum lagenarium) / liquid culture (anthracnose); assay type: cell-based; details: Colletotrichum orbiculare, 72 h, photometrically 3-4 days after application, read-out: control of Glomerella lagenarium
Outline: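 Conidia in potato dextrose broth added to test compound delivered as DMSO solution in microtiter plates; incubation at 24° C. Growth inhibition read photometrically 3-4 days after application.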

[1] = tested on: Blumeria graminis f. sp. tritici; assay: Blumeria graminis f. sp. tritici / wheat / leaf disc preventative (powdery mildew); assay type: in vivo; details: foliar, inoculated 1 day after application
Method: Example B7: Blumeria graminis f. Sp. Tritici (Erysiphe graminis f. Sp. Tritici)/Wheat/Leaf Disc Preventative (Powdery Mildew on Wheat) Wheat leaf segments cv. Kanzler are placed on agar in a multiwell plate (24-well format) and sprayed with the formulated test compound diluted in water. The leaf disks are inoculated by shaking powdery mildew infected plants above the test plates 1 day after application. The inoculated leaf disks are incubated at 20° C. and 60% relative humidity under a light regime of 24 h darkness followed by 12 h light/12 h darkness in a climate chamber and the activity of a compound is assessed as percent disease control compared to untreated when an appropriate level of disease damage appears on untreated check leaf segments (6-8 days after application).

Fusarium culmorum = assay: microbe, parasite or virus in culture; assay type: cell-based; details: 72 h, read-out: control of Fusarium culmorum
[2] = tested on: Mycosphaerella graminicola; assay: Mycosphaerella graminicola (Septoria tritici) / liquid culture (Septoria blotch); assay type: cell-based; details: Zymoseptoria tritici, 96 h, photometrically 4-5 days after application, read-out: control of Mycosphaerella graminicola
Outline: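 Conidia from cryogenic storage mixed into potato dextrose broth, added to test compound in DMSO. Plates incubated at 24° C; growth inhibition read photometrically 4-5 days after application.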

Monographella nivalis = Monographella nivalis (Microdochium nivale) / liquid culture (foot rot cereals); assay type: cell-based; details: 96 h, photometrically 4-5 days after application, read-out: control of Monographella nivalis
Outline: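 Microdochium nivale conidia in potato dextrose broth were added to test compound in DMSO and incubated at 24° C. Growth inhibition was measured photometrically 4-5 days after application.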

Phaeosphaeria nodorum = Phaeosphaeria nodorum (Septoria nodorum) / wheat / leaf disc preventative (glume blotch); assay type: in vivo; details: Parastagonospora nodorum, foliar, inoculated 2 days after application
Method: Example B9: Phaeosphaeria nodorum (Septoria nodorum)/Wheat/Leaf Disc Preventative (Glume Blotch) Wheat leaf segments cv. Kanzler are placed on agar in a multiwell plate (24-well format) and sprayed with the formulated test compound diluted in water. The leaf disks are inoculated with a spore suspension of the fungus 2 days after application. The inoculated test leaf disks are incubated at 20° C. and 75% relative humidity under a light regime of 12 h light/12 h darkness in a climate cabinet and the activity of a compound is assessed as percent disease control compared to untreated when an appropriate level of disease damage appears in untreated check leaf disks (5-7 days after application).

Botryotinia fuckeliana = Botryotinia fuckeliana (Botrytis cinerea) / liquid culture (gray mould); assay type: cell-based; details: 72 h, growth inhibition photometrically 3-4 days after application, read-out: control of Botryotinia fuckeliana
Outline: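 Botrytis cinerea conidia in Vogels nutrient broth added to test compound delivered in DMSO. Incubated at 24 °C; growth inhibition measured photometrically 3–4 days after application.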

Pyrenophora teres = Pyrenophora teres / barley / leaf disc preventative (net blotch); assay type: in vivo; details: foliar, inoculated 2 days after application
Method: Example B16: Pyrenophora teres/Barley/Leaf Disc Preventative (Net Blotch) Barley leaf segments cv. Hasso are placed on agar in a multiwell plate (24-well format) and sprayed with the formulated test compound diluted in water. The leaf segments are inoculated with a spore suspension of the fungus 2 days after application. The inoculated leaf segments are incubated at 20° C. and 65% relative humidity under a light regime of 12 h light/12 h darkness in a climate cabinet and the activity of a compound is assessed as disease control compared to untreated when an appropriate level of disease damage appears in untreated check leaf segments (5-7 days after application).

Mycosphaerella arachidis = Mycosphaerella arachidis (Cercospora arachidicola) / liquid culture (early leaf spot); assay type: cell-based; details: 96 h, photometrically 4-5 days after application, read-out: control of Mycosphaerella arachidis
Outline: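 Cryostored M. arachidis conidia in potato dextrose broth were added to compound applied as DMSO solution. Incubated at 24 °C; growth inhibition measured photometrically 4-5 days after application.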

Sclerotinia sclerotiorum = Sclerotinia sclerotiorum / liquid culture (cottony rot); assay type: cell-based; details: 72 h, photometrically 3-4 days after application, read-out: control of Sclerotinia sclerotiorum
Method: Example B18: Sclerotinia sclerotiorum/Liquid Culture (Cottony Rot) Mycelia fragments of a newly grown liquid culture of the fungus are directly mixed into a nutrient broth (potato dextrose broth). After placing a DMSO solution of test compound into a microtiter plate (96-well format) the nutrient broth containing the fungal material is added. The test plates are incubated at 24° C. and the inhibition of growth is determined photometrically 3-4 days after application.

[3] = tested on: Puccinia recondita f. sp. tritici; assay: Puccinia recondita f. sp. tritici / wheat / leaf disc preventative (brown rust); assay type: in vivo; details: foliar, inoculated 1 day after application
Method: Example B14: Puccinia recondita f. Sp. Tritici/Wheat/Leaf Disc Preventative (Brown Rust) Wheat leaf segments cv. Kanzler are placed on agar in multiwell plates (24-well format) and sprayed with the formulated test compound diluted in water. The leaf disks are inoculated with a spore suspension of the fungus 1 day after application. The inoculated leaf segments are incubated at 19° C. and 75% relative humidity under a light regime of 12 h light/12 h darkness in a climate cabinet and the activity of a compound is assessed as percent disease control compared to untreated when an appropriate level of disease damage appears in untreated check leaf segments (7-9 days after application).

Cc1c(C2CN(C(=O)c3cc(-c4ccc(F)cc4F)no3)Cc3ccccc32)cnn1C (stereo not drawn) [Compound P-108, [3-(2,4-difluorophenyl)isoxazol-5-yl]-[4-(1,5-dimethylpyrazol-4-yl)-3,4-dihydro-1H-isoquinolin-2-yl]methanone]
≥ 80%: pest or weed control at 200 ppm (Alternaria solani) | inhibition of growth at 20 ppm (Glomerella lagenarium) | pest or weed control at 200 ppm [1] | inhibition of growth at 20 ppm (Fusarium culmorum) | inhibition of growth at 20 ppm [2] | inhibition of growth at 20 ppm (Monographella nivalis) | pest or weed control at 200 ppm (Phaeosphaeria nodorum) | inhibition of growth at 20 ppm (Botryotinia fuckeliana) | pest or weed control at 200 ppm (Pyrenophora teres) | inhibition of growth at 20 ppm (Mycosphaerella arachidis)

Cn1cc(C2CN(C(=O)c3cc(-c4ccc(F)cc4F)on3)Cc3ccccc32)cn1 (single isomer, unassigned) [Compound P-143, [5-(2,4-difluorophenyl)isoxazol-3-yl]-[4-(1-methylpyrazol-4-yl)-3,4-dihydro-1H-isoquinolin-2-yl]methanone]
≥ 80%: inhibition of growth at 20 ppm (Sclerotinia sclerotiorum) | pest or weed control at 200 ppm (Pyrenophora teres)

Cc1ccc2c(c1)C(c1cnn(C)c1)CN(C(=O)c1cc(-c3ccc(F)cc3F)on1)C2 (stereo not drawn) [Compound P-133, [5-(2,4-difluorophenyl)isoxazol-3-yl]-[6-methyl-4-(1-methylpyrazol-4-yl)-3,4-dihydro-1H-isoquinolin-2-yl]methanone]
≥ 80%: pest or weed control at 200 ppm [3] | pest or weed control at 200 ppm (Alternaria solani) | inhibition of growth at 20 ppm [2] | inhibition of growth at 20 ppm (Monographella nivalis) | inhibition of growth at 20 ppm (Mycosphaerella arachidis)

Cn1ncc(C2CN(C(=O)c3nnc(-c4ccc(F)cc4F)s3)Cc3ccccc32)c1Cl (stereo not drawn) [Compound P-212, [4-(5-chloro-1-methyl-pyrazol-4-yl)-3,4-dihydro-1H-isoquinolin-2-yl]-[5-(2,4-difluorophenyl)-1,3,4-thiadiazol-2-yl]methanone]
≥ 80%: inhibition of growth at 20 ppm (Sclerotinia sclerotiorum) | inhibition of growth at 20 ppm (Glomerella lagenarium) | inhibition of growth at 20 ppm (Fusarium culmorum) | inhibition of growth at 20 ppm [2] | inhibition of growth at 20 ppm (Monographella nivalis) | inhibition of growth at 20 ppm (Botryotinia fuckeliana) | inhibition of growth at 20 ppm (Mycosphaerella arachidis)

Cc1c(C2CN(C(=O)c3cc(-c4ccc(F)cc4)no3)Cc3ccccc32)cnn1C (stereo not drawn) [Compound P-109, [4-(1,5-dimethylpyrazol-4-yl)-3,4-dihydro-1H-isoquinolin-2-yl]-[3-(4-fluorophenyl)isoxazol-5-yl]methanone]
≥ 80%: pest or weed control at 200 ppm [3] | inhibition of growth at 20 ppm (Sclerotinia sclerotiorum) | pest or weed control at 200 ppm (Alternaria solani) | inhibition of growth at 20 ppm (Glomerella lagenarium) | pest or weed control at 200 ppm [1] | inhibition of growth at 20 ppm [2] | inhibition of growth at 20 ppm (Monographella nivalis) | pest or weed control at 200 ppm (Phaeosphaeria nodorum) | inhibition of growth at 20 ppm (Botryotinia fuckeliana) | pest or weed control at 200 ppm (Pyrenophora teres) | inhibition of growth at 20 ppm (Mycosphaerella arachidis)

Cc1c(C2c3ccccc3CN(C(=O)c3cc(-c4ccc(F)cc4F)on3)C2(C)C)cnn1C (stereo not drawn) [Compound P-100, [5-(2,4-difluorophenyl)isoxazol-3-yl]-[4-(1,5-dimethylpyrazol-4-yl)-3,3-dimethyl-1,4-dihydroisoquinolin-2-yl]methanone]
≥ 80%: inhibition of growth at 20 ppm (Sclerotinia sclerotiorum) | pest or weed control at 200 ppm (Alternaria solani) | inhibition of growth at 20 ppm (Glomerella lagenarium) | inhibition of growth at 20 ppm [2] | inhibition of growth at 20 ppm (Monographella nivalis) | pest or weed control at 200 ppm (Phaeosphaeria nodorum) | inhibition of growth at 20 ppm (Botryotinia fuckeliana) | pest or weed control at 200 ppm (Pyrenophora teres) | inhibition of growth at 20 ppm (Mycosphaerella arachidis)

Cn1cc(C2CN(C(=O)c3cc(-c4ccccc4)on3)Cc3ccc(C(F)(F)F)cc32)cn1 (stereo not drawn) [Compound P-104, [4-(1-methylpyrazol-4-yl)-6-(trifluoromethyl)-3,4-dihydro-1H-isoquinolin-2-yl]-(5-phenylisoxazol-3-yl)methanone]
≥ 80%: pest or weed control at 200 ppm [3] | pest or weed control at 200 ppm (Alternaria solani) | inhibition of growth at 20 ppm (Glomerella lagenarium) | pest or weed control at 200 ppm [1] | inhibition of growth at 20 ppm [2] | inhibition of growth at 20 ppm (Monographella nivalis) | pest or weed control at 200 ppm (Phaeosphaeria nodorum) | pest or weed control at 200 ppm (Pyrenophora teres) | inhibition of growth at 20 ppm (Mycosphaerella arachidis)

Cc1c(C2CN(C(=O)c3cc(-c4ccccc4F)on3)Cc3ccccc32)cnn1C (stereo not drawn) [Compound P-119, [4-(1,5-dimethylpyrazol-4-yl)-3,4-dihydro-1H-isoquinolin-2-yl]-[5-(2-fluorophenyl)isoxazol-3-yl]methanone]
≥ 80%: pest or weed control at 200 ppm (Alternaria solani) | inhibition of growth at 20 ppm (Glomerella lagenarium) | inhibition of growth at 20 ppm (Fusarium culmorum) | inhibition of growth at 20 ppm [2] | inhibition of growth at 20 ppm (Monographella nivalis) | pest or weed control at 200 ppm (Phaeosphaeria nodorum) | inhibition of growth at 20 ppm (Botryotinia fuckeliana) | pest or weed control at 200 ppm (Pyrenophora teres) | inhibition of growth at 20 ppm (Mycosphaerella arachidis)

Cc1c(C2CN(C(=O)c3cc(-c4ccc(F)cc4F)on3)Cc3ccccc32)cnn1C (single isomer, unassigned) [Compound P-223, [5-(2,4-difluorophenyl)isoxazol-3-yl]-[4-(1,5-dimethylpyrazol-4-yl)-3,4-dihydro-1H-isoquinolin-2-yl]methanone]
≥ 80%: inhibition of growth at 20 ppm (Sclerotinia sclerotiorum) | inhibition of growth at 20 ppm (Glomerella lagenarium) | inhibition of growth at 20 ppm (Fusarium culmorum) | inhibition of growth at 20 ppm [2] | inhibition of growth at 20 ppm (Monographella nivalis) | inhibition of growth at 20 ppm (Botryotinia fuckeliana) | inhibition of growth at 20 ppm (Mycosphaerella arachidis)

Cn1cc(C2CN(C(=O)c3cc(-c4ccc(F)cc4F)on3)Cc3ccccc32)cn1 (stereo not drawn) [Compound P-180, [5-(2,4-difluorophenyl)isoxazol-3-yl]-[4-(1-methylpyrazol-4-yl)-3,4-dihydro-1H-isoquinolin-2-yl]methanone]
≥ 80%: inhibition of growth at 20 ppm (Sclerotinia sclerotiorum) | pest or weed control at 200 ppm (Alternaria solani) | inhibition of growth at 20 ppm (Glomerella lagenarium) | inhibition of growth at 20 ppm [2] | inhibition of growth at 20 ppm (Monographella nivalis) | pest or weed control at 200 ppm (Phaeosphaeria nodorum) | inhibition of growth at 20 ppm (Botryotinia fuckeliana) | pest or weed control at 200 ppm (Pyrenophora teres) | inhibition of growth at 20 ppm (Mycosphaerella arachidis)

Cc1c(C2CN(C(=O)c3nnc(-c4ccccc4F)s3)Cc3ccccc32)cnn1C (stereo not drawn) [Compound P-64, [4-(1,5-dimethylpyrazol-4-yl)-3,4-dihydro-1H-isoquinolin-2-yl]-[5-(2-fluorophenyl)-1,3,4-thiadiazol-2-yl]methanone]
≥ 80%: pest or weed control at 200 ppm (Alternaria solani) | inhibition of growth at 20 ppm (Glomerella lagenarium) | inhibition of growth at 20 ppm (Fusarium culmorum) | inhibition of growth at 20 ppm [2] | inhibition of growth at 20 ppm (Monographella nivalis) | pest or weed control at 200 ppm (Phaeosphaeria nodorum) | inhibition of growth at 20 ppm (Botryotinia fuckeliana) | pest or weed control at 200 ppm (Pyrenophora teres) | inhibition of growth at 20 ppm (Mycosphaerella arachidis)
